In patent EP0595557A1, “New substituted azetidinones as anti-inflammatory and antidegenerative agents” (MERCK & CO. INC., priority 1992, dated 1994) one finds kinact/KI data, which are given here for 49 compounds.

The test concerns the target T1, Human Polymorphonuclear Leukocyte Elastase (Homo sapiens, UniProt P08246).
T1 construct: Crude extract of human polymorphonuclear leukocytes (PMN) containing elastase activity; from tissue; host or cells: human polymorphonuclear leukocytes (crude extract)
T1 sequence (P08246 30-267): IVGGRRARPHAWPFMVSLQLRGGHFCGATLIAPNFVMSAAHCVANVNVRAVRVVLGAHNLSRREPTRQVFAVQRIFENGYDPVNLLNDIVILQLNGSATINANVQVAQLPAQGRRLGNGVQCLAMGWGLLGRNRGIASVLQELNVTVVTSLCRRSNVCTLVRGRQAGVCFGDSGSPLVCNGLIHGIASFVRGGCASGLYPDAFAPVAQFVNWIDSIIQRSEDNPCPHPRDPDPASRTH
As to the kind of experiment: Enzyme assay for inhibition of human polymorphonuclear leukocyte elastase via hydrolysis of Boc-AAPAN or Boc-AAPVN. It counts as biochemical. As to conditions: pH 7.5, second order rate constant for inactivation of the enzyme, expressed to the nearest thousand, read-out: Kobs/[I]. The procedure, abridged:
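Crude human PMN extract as enzyme source, with 0.2 mM Boc-AAPAN in 0.05M TES buffer pH 7.5. Inhibitors in DMSO were added to substrate before the extract, and rate was followed as ΔOD/min at 410 mµ. Values are kobs/I, the second-order inactivation rate constant (per mole per second).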

On to `CCC[C@@H](NC(=O)N1C(=O)C(CC)(CC)[C@@H]1Oc1ccc(C(=O)N(CCC)CCC)cc1)c1ccc(C)cc1` [Compound 127], for which the kinact/KI was 990000 M⁻¹ s⁻¹.
Regarding `CCC[C@@H](NC(=O)N1C(=O)C(CC)(CC)[C@@H]1Oc1ccc(C(=O)N(CC)CC)cc1)c1ccc(C)cc1` [Compound 128], the kinact/KI stood at 1.45e+06 M⁻¹ s⁻¹.
For `CCC[C@@H](NC(=O)N1C(=O)C(CC)(CC)[C@@H]1Oc1ccc(C(=O)N(C)CCN2CCC(O)CC2)cc1)c1ccc(C)cc1` [Compound 129], the kinact/KI was 1.99e+06 M⁻¹ s⁻¹.
For the compound `CCC[C@@H](NC(=O)N1C(=O)C(CC)(CC)[C@@H]1Oc1ccc(C(=O)N(C)CCN2CCC(=O)CC2)cc1)c1ccc(C)cc1` [Compound 130], the kinact/KI worked out at 2.3e+06 M⁻¹ s⁻¹.
With `CCC[C@@H](NC(=O)N1C(=O)C(CC)(CC)[C@@H]1Oc1ccc(C(=O)NCCN2CCC(O)C2)cc1)c1ccc(C)cc1` (stereo partly shown) [Compound 131], the kinact/KI was 1.11e+06 M⁻¹ s⁻¹.
On to `CCC[C@@H](NC(=O)N1C(=O)C(CC)(CC)[C@@H]1Oc1ccc(C(=O)N(CC)CCN2CCCCC2)cc1)c1ccc(C)cc1` [Compound 132], for which the kinact/KI stood at 1.24e+06 M⁻¹ s⁻¹.
As for `CCC[C@@H](NC(=O)N1C(=O)C(CC)(CC)[C@@H]1Oc1ccc(C(=O)N(CCN2CCCCC2)Cc2ccccc2)cc1)c1ccc(C)cc1` [Compound 133], the kinact/KI came to 1.52e+06 M⁻¹ s⁻¹.
As to `CCC[C@@H](NC(=O)N1C(=O)C(CC)(CC)[C@@H]1Oc1ccc(C(=O)Nc2ccc(F)cc2)cc1)c1ccc(C)cc1` [Compound 134], the kinact/KI is 724000 M⁻¹ s⁻¹.
For the compound `CCC[C@@H](NC(=O)N1C(=O)C(CC)(CC)[C@@H]1Oc1ccc(C(=O)Nc2cccc(Cl)c2)cc1)c1ccc(C)cc1` [Compound 135], the kinact/KI stood at 201000 M⁻¹ s⁻¹.
`CCC[C@@H](NC(=O)N1C(=O)C(CC)(CC)[C@@H]1Oc1ccc(C(=O)N(CCN(C)C)Cc2ccccc2)cc1)c1ccc(C)cc1` [Compound 137]: the kinact/KI amounted to 1.38e+06 M⁻¹ s⁻¹.
Turning to `CCC[C@@H](NC(=O)N1C(=O)C(CC)(CC)[C@@H]1Oc1ccc(C(=O)N(C)CCN2CCC(O)C2)cc1)c1ccc(C)cc1` (stereo partly shown) [Compound 138], the kinact/KI was 960000 M⁻¹ s⁻¹.
For `CCC[C@@H](NC(=O)N1C(=O)C(CC)(CC)[C@@H]1Oc1ccc(C(=O)N(CCN2CCCCC2)Cc2cccnc2)cc1)c1ccc(C)cc1` [Compound 139], the kinact/KI worked out at 1.19e+06 M⁻¹ s⁻¹.
The same measure for `CCC[C@@H](NC(=O)N1C(=O)C(CC)(CC)[C@@H]1Oc1ccc(C(=O)NC(C)CCCN(CC)CC)cc1)c1ccc(C)cc1` (stereo partly shown) [Compound 140]: 1.36e+06 M⁻¹ s⁻¹; for `CCC[C@@H](NC(=O)N1C(=O)C(CC)(CC)[C@@H]1Oc1ccc(C(=O)NCCN2CCC[C@H]2CO)cc1)c1ccc(C)cc1` [Compound 141]: 1.51e+06 M⁻¹ s⁻¹; for `CCC[C@@H](NC(=O)N1C(=O)C(CC)(CC)[C@@H]1Oc1ccc(C(=O)N(C)CCN2CCN(C(=O)OC(C)(C)C)CC2)cc1)c1ccc(C)cc1` [Compound 142]: 3.47e+06 M⁻¹ s⁻¹.
Regarding `CCC[C@@H](NC(=O)N1C(=O)C(CC)(CC)[C@@H]1Oc1ccc(C(=O)N(CCN(C)C)CCN(C)C)cc1)c1ccc(C)cc1` [Compound 143], the kinact/KI stood at 1.88e+06 M⁻¹ s⁻¹.
Consider `CCC[C@@H](NC(=O)N1C(=O)C(CC)(CC)[C@@H]1Oc1ccc(C(=O)N(CCN(CC)CC)CCN(CC)CC)cc1)c1ccc(C)cc1` [Compound 144], for which the kinact/KI was 1.51e+06 M⁻¹ s⁻¹.
The same measure for `CCC[C@@H](NC(=O)N1C(=O)C(CC)(CC)[C@@H]1Oc1ccc(C(=O)N(C)CCN(C)Cc2cccnc2)cc1)c1ccc(C)cc1` [Compound 145]: 2.88e+06 M⁻¹ s⁻¹.
Turning to `CCC[C@@H](NC(=O)N1C(=O)C(CC)(CC)[C@@H]1Oc1ccc(C(=O)N2CC(C)NC(C)C2)cc1)c1ccc(C)cc1` (stereo partly shown) [Compound 146], the kinact/KI stood at 1.52e+06 M⁻¹ s⁻¹.
The same measure for `CCC[C@@H](NC(=O)N1C(=O)C(CC)(CC)[C@@H]1Oc1ccc(C(=O)N(C)CC[N+](C)([O-])Cc2ccccc2)cc1)c1ccc(C)cc1` (stereo partly shown) [Compound 147]: 2.49e+06 M⁻¹ s⁻¹; for `CCC[C@@H](NC(=O)N1C(=O)C(CC)(CC)[C@@H]1Oc1ccc(C(=O)N(C)CCN(C)Cc2ccncc2)cc1)c1ccc(C)cc1` [Compound 148]: 2.39e+06 M⁻¹ s⁻¹.
As to `CCC[C@@H](NC(=O)N1C(=O)C(CC)(CC)[C@@H]1Oc1ccc(C(=O)N2CCC[C@H]2CN(C)Cc2ccccc2)cc1)c1ccc(C)cc1` [Compound 149], the kinact/KI amounted to 3.27e+06 M⁻¹ s⁻¹.
With `CCC[C@@H](NC(=O)N1C(=O)C(CC)(CC)[C@@H]1Oc1ccc(C(=O)N(C)CCN(C)Cc2ccccn2)cc1)c1ccc(C)cc1` [Compound 150], the kinact/KI is 2.16e+06 M⁻¹ s⁻¹.
Turning to `CCC[C@@H](NC(=O)N1C(=O)C(CC)(CC)[C@@H]1Oc1ccc(C(=O)N(C)CCN2CCNCC2)cc1)c1ccc(C)cc1` [Compound 151], the kinact/KI was determined as 1.19e+06 M⁻¹ s⁻¹.
The same measure for `CCC[C@@H](NC(=O)N1C(=O)C(CC)(CC)[C@@H]1Oc1ccc(C(=O)N2CCCNCC2)cc1)c1ccc(C)cc1` [Compound 152]: 1.95e+06 M⁻¹ s⁻¹; for `CCC[C@@H](NC(=O)N1C(=O)C(CC)(CC)[C@@H]1Oc1ccc(C(=O)N(C)CCN(C)CCc2ccccc2)cc1)c1ccc(C)cc1` [Compound 153]: 2.8e+06 M⁻¹ s⁻¹; for `CCC[C@@H](NC(=O)N1C(=O)C(CC)(CC)[C@@H]1Oc1ccc(C(=O)N2CCC[C@@H]2CN2CCCC2)cc1)c1ccc(C)cc1` [Compound 154]: 1.67e+06 M⁻¹ s⁻¹.
With `CCC[C@@H](NC(=O)N1C(=O)C(CC)(CC)[C@@H]1Oc1ccc(C(=O)N2CCCN(Cc3ccccc3)CC2)cc1)c1ccc(C)cc1` [Compound 155], the kinact/KI is 1.98e+06 M⁻¹ s⁻¹.
Then `CCC[C@@H](NC(=O)N1C(=O)C(CC)(CC)[C@@H]1Oc1ccc(C(=O)N(C)CC(O)C(O)C(O)C(O)CO)cc1)c1ccc(C)cc1` (stereo partly shown) [Compound 156], with 1.2e+06 M⁻¹ s⁻¹.
Then `CCC[C@@H](NC(=O)N1C(=O)C(CC)(CC)[C@@H]1Oc1ccc(C(=O)N(C)CC(OC(C)=O)C(OC(C)=O)C(OC(C)=O)C(COC(C)=O)OC(C)=O)cc1)c1ccc(C)cc1` (stereo partly shown) [Compound 157], with 1.17e+06 M⁻¹ s⁻¹; and `CCC[C@@H](NC(=O)N1C(=O)C(CC)(CC)[C@@H]1Oc1ccc(C(=O)N(C)CCN(C)Cc2cccc3ccccc23)cc1)c1ccc(C)cc1` [Compound 158], with 1.08e+06 M⁻¹ s⁻¹; and `CCC[C@@H](NC(=O)N1C(=O)C(CC)(CC)[C@@H]1Oc1ccc(C(=O)N(C)CCN(Cc2ccccc2)Cc2ccccc2)cc1)c1ccc(C)cc1` [Compound 161], with 1.02e+06 M⁻¹ s⁻¹.
The same measure for `CCC[C@@H](NC(=O)N1C(=O)C(CC)(CC)[C@@H]1Oc1ccc(C(=O)NC2CCCN(CC)C2)cc1)c1ccc(C)cc1` (stereo partly shown) [Compound 162]: 949000 M⁻¹ s⁻¹; for `CCC[C@@H](NC(=O)N1C(=O)C(CC)(CC)[C@@H]1Oc1ccc(C(=O)N(C)CCN(C)Cc2ccco2)cc1)c1ccc(C)cc1` [Compound 163]: 1.82e+06 M⁻¹ s⁻¹; for `CCC[C@@H](NC(=O)N1C(=O)C(CC)(CC)[C@@H]1Oc1ccc(C(=O)N(C)CCCC(=O)O)cc1)c1ccc(C)cc1` [Compound 164]: 1.06e+06 M⁻¹ s⁻¹.
Turning to `CCC[C@@H](NC(=O)N1C(=O)C(CC)(CC)[C@@H]1Oc1ccc(C(=O)N(C)CCCC(=O)NS(=O)(=O)c2ccccc2)cc1)c1ccc(C)cc1` [Compound 165], the kinact/KI was determined as 1.55e+06 M⁻¹ s⁻¹.
As for `C=CCN(C)CCN(C)C(=O)c1ccc(O[C@@H]2N(C(=O)N[C@H](CCC)c3ccc(C)cc3)C(=O)C2(CC)CC)cc1` [Compound 166], the kinact/KI was 1.36e+06 M⁻¹ s⁻¹.
Turning to `CCC[C@@H](NC(=O)N1C(=O)C(CC)(CC)[C@@H]1Oc1ccc(C(=O)N(C)CCCN(C)Cc2ccccc2)cc1)c1ccc(C)cc1` [Compound 167], the kinact/KI was 1.29e+06 M⁻¹ s⁻¹.
Then `CCC[C@@H](NC(=O)N1C(=O)C(CC)(CC)[C@@H]1Oc1ccc(C(=O)N(C)CCCCCCN(C)Cc2ccccc2)cc1)c1ccc(C)cc1` [Compound 168], with 2.16e+06 M⁻¹ s⁻¹.
For `CCC[C@@H](NC(=O)N1C(=O)C(CC)(CC)[C@@H]1Oc1ccc(C(=O)N(C)CCO)cc1)c1ccc(C)cc1` [Compound 169], the kinact/KI came to 1.46e+06 M⁻¹ s⁻¹.
Take `CCC[C@@H](NC(=O)N1C(=O)C(CC)(CC)[C@@H]1Oc1ccc(C(=O)N(C)CCOC(=O)N(C)C)cc1)c1ccc(C)cc1` [Compound 170]: the kinact/KI turned out to be 1.52e+06 M⁻¹ s⁻¹.
On to `CCC[C@@H](NC(=O)N1C(=O)C(CC)(CC)[C@@H]1Oc1ccc(C(=O)N(C)CCN(C)CC(=O)OC(C)(C)C)cc1)c1ccc(C)cc1` [Compound 171], for which the kinact/KI is 1.83e+06 M⁻¹ s⁻¹.
The same measure for `CCC[C@@H](NC(=O)N1C(=O)C(CC)(CC)[C@@H]1Oc1ccc(C(=O)N(C)C2CCCN(CC)C2)cc1)c1ccc(C)cc1` (stereo partly shown) [Compound 172]: 1.54e+06 M⁻¹ s⁻¹; for `CCC[C@@H](NC(=O)N1C(=O)C(CC)(CC)[C@@H]1Oc1ccc(C(=O)N(C)CCN(C)CC2CCCCO2)cc1)c1ccc(C)cc1` (stereo partly shown) [Compound 173]: 2.94e+06 M⁻¹ s⁻¹; for `CCC[C@@H](NC(=O)N1C(=O)C(CC)(CC)[C@@H]1Oc1ccc(C(=O)NC2CC(C)(C)NC(C)(C)C2)cc1)c1ccc(C)cc1` [Compound 174]: 869000 M⁻¹ s⁻¹.
With `CCC[C@@H](NC(=O)N1C(=O)C(CC)(CC)[C@@H]1Oc1ccc(C(=O)N(C)c2ccc(C(=O)O)cc2)cc1)c1ccc(C)cc1` [Compound 175], the kinact/KI came out at 1.06e+06 M⁻¹ s⁻¹.
As to `CCC[C@@H](NC(=O)N1C(=O)C(CC)(CC)[C@@H]1Oc1ccc(C(=O)N(C)c2ccc(C(=O)NS(=O)(=O)c3ccccc3)cc2)cc1)c1ccc(C)cc1` [Compound 176], the kinact/KI amounted to 3.23e+06 M⁻¹ s⁻¹.
Then `CCC[C@@H](NC(=O)N1C(=O)C(CC)(CC)[C@@H]1Oc1ccc(C(=O)N(C)CCN(C)Cc2ccc(C#N)cc2)cc1)c1ccc(C)cc1` [Compound 177], with 2.2e+06 M⁻¹ s⁻¹; and `CCC[C@@H](NC(=O)N1C(=O)C(CC)(CC)[C@@H]1Oc1ccc(C(=O)N(C)CCN(C)Cc2ccc(C)cc2)cc1)c1ccc(C)cc1` [Compound 178], with 1.87e+06 M⁻¹ s⁻¹.
